Experimental data as given in patent publication US6339146B1, “Cycloalkylated beta-glucoside” (Nikon Shokuhin Kako Co., Ltd., priority 1999, dated 2002).

How the values were obtained:
[1] = system: β-glucosidase derived from Almond; assay: β-Glucosidase inhibition test (pNP-β-Glc hydrolysis); type: biochemical; settings: for Activity ratio (pNP-β-glucosidase activity): Almond enzyme, cycloalkyl glucoside 1 mM (table title), no inhibitor = 1.00, pH 5.0, 40° C., 10 minutes
Description: (§1) β-Glucosidase inhibition test was performed as follows. 10 mM p-nitrophenyl-β-glucoside (100 μl, abbreviated as pNP-β-Glc hereinafter), 1 M sodium acetate buffer (pH 5.0, 50 μl), pure water, and 100 mM inhibitor (10 μl) were taken into a short test tube so that the mixture should have a total volume of […], and preincubated at 40° C. for 5 minutes. After the incubation, the obtained mixture was added with 50 μl of enzyme solution diluted to a suitable concentration, and allowed to react at 40° C. After 10 minutes, the enzyme was inactivated by adding 500 μl of 1 M sodium carbonate to the obtained reaction mixture, and the absorbance at 405 nm was measured and used for calculation of the amount of free p-nitrophenol. As the inhibitor, cyclopropylmethyl-β-glucoside (CPAM-β-Glc), cyclopentyl-β-glucoside (CPE-β-Glc), and cyclopentylmethyl-β-glucoside (CPEM-β-Glc) all prepared by the methods of Examples 1 and 2were used. As the β-glucosidase, chromatographically purified preparations derived from Aspergillus niger, Trichoderma viride, and Almond (all from SIGMA) were used.

[2] = target: β-glucosidase derived from Aspergillus niger (Aspergillus niger, UniProt A2RAL4); assay: as above; type: biochemical; settings: for Activity ratio (pNP-β-glucosidase activity): cycloalkyl glucoside 1 mM (table title), no inhibitor = 1.00, pH 5.0, 40° C., 10 minutes
Description: as §1

[3] = target: β-glucosidase derived from Trichoderma viride (Trichoderma viride, UniProt Q6UJY0); assay: as above; type: biochemical; settings: T. viride enzyme
Description: as §1

[4] = system: rose petal crude enzyme solution (pNP-β-Glc activity); assay: Inhibition test for rose crude enzyme (pNP-β-Glc activity); type: biochemical, Rosa gybrida CV. Wendy
Description: as §1
Only petals (about 70 g) were collected from about ten marketed roses (variety; Rosa gybrida CV. Wendy), added with acetone (500 ml) cooled to −20° C., and pulverized by a homogenizer while cooled with dry ice. The obtained pulverized mixture was filtered through a Buchner funnel put with a No. 2 filter paper sheet, and sufficiently washed with acetone at −20° C. The obtained filtrate was dried in a desiccator under reduced pressure (room temperature, 3 hours) to obtain 6 g of crude enzyme powder. This powder was added to 100 mM sodium phosphate buffer (pH 7.0, 120 ml) and stirred at 4° C. for 3 hours, and the insoluble matter was removed by centrifugation. The filtrate was subjected to ultrafiltration utilizing an ultrafiltration membrane PM-10 (Amicon) to finally afford 15 ml of crude enzyme solution.
In the same manner as in Example 3, the inhibition activity of the CPEM-β-Glc obtained in Example 2 for the pNP-β-Glc activity of the above crude enzyme solution was measured. […]

[5] = system: chrysanthemum cut flowers; assay: Aromatic substance formation inhibition effect in cut flowers (organoleptic test); type: in vivo; settings: 0.13% (w/v, 5 mM) aqueous solution
Description: (§2) A 0.13% (w/v, 5 mM) aqueous solution of the CPEM-β-Glc obtained in Example 2 was prepared. The obtained aqueous solution (300 ml) was introduced into an Erlenmeyer flask, and lily, chrysanthemum, and gypsophila were put into it one for each. On the other hand, as control, the flowers were similarly put into water without the CPEM-β-Glc. After 1, 2 and 4 days, organoleptic test was performed by ten expert panelists as for the aroma emitted from these cut flowers.

[6] = system: gypsophila cut flowers; assay: as above; type: in vivo; settings: 0.13% (w/v, 5 mM) aqueous solution
Description: as §2

[7] = system: lily cut flowers; assay: as above; type: in vivo; settings: 0.13% (w/v, 5 mM) aqueous solution
Description: as §2

[8] = cycloalkyl glucoside 1 mM (table title), no inhibitor = 1.00, pH 5.0, 40° C., 10 minutes

Compound	Activity ratio (pNP-β-glucosidase activity) [1]	Inhibition of β-glucosidase (in words) ([1]; almond enzyme, inhibitor concentration of 1.25 mM)	Difference in 50% inhibition concentration, almond versus A. niger and T. viride β-glucosidases ([1]; ratio of 50% inhibition concentrations)	IC50 ([1]; β-glucosidase derived from almond, concentration varied from 0 to 5 mM, read-out: 50% inhibition concentration) [µM]	activity at 1000 µM ([2]; 10 min, pH 5, read-out: Activity ratio (pNP-β-glucosidase activity)) [%]	Inhibition of β-glucosidase (in words) ([2]; A. niger enzyme, inhibitor concentration of 1.25 mM)	activity at 1000 µM ([3]; 10 min, cycloalkyl glucoside 1 mM (table title), no inhibitor = 1.00, pH 5.0, 40° C., 10 minutes, read-out: Activity ratio (pNP-β-glucosidase activity)) [%]	Inhibition of β-glucosidase (in words) ([3]; inhibitor concentration of 1.25 mM)	Inhibition activity for pNP-β-Glc activity of rose crude enzyme ([4]; at 3 mM)	Inhibition activity for pNP-β-Glc activity of rose crude enzyme ([4]; at 4 mM)	Inhibition activity for pNP-β-Glc activity of rose crude enzyme ([4]; at 5 mM)	Freshness of the cut flowers ([5]; added versus not added)	Aroma emitted from cut flowers (organoleptic test, ten expert panelists) ([5]; after one day, versus water)	Freshness of the cut flowers ([6]; added versus not added)	Aroma emitted from cut flowers (organoleptic test, ten expert panelists) ([6]; after one day, versus water)	Freshness of the cut flowers ([7]; added versus not added)	Aroma emitted from cut flowers (organoleptic test, ten expert panelists) ([7]; after one day, versus water)	Activity ratio (pNP-β-glucosidase activity) ([2]; A. niger enzyme)	Activity ratio (pNP-β-glucosidase activity) [3, 8]
OCC1OC(OCC2CCCC2)C(O)C(O)C1O (stereo not drawn) [CPEM-β-Glc, cyclopentylmethyl-β-glucoside]	0.27	strongly inhibited	about 70 times	170	99	relatively weak inhibition	105	no inhibition	about 50%	about 70%	about 90%	No difference	distinctly reduced	No difference	distinctly reduced	No difference	distinctly reduced	–	–
OC[C@H]1O[C@@H](OC2CCCC2)[C@H](O)[C@@H](O)[C@@H]1O [CPE-β-Glc, cyclopentyl-β-glucoside]	0.90	–	–	–	–	–	–	–	–	–	–	–	–	–	–	–	–	0.92	1.06
OC[C@H]1O[C@@H](OCC2CC2)[C@H](O)[C@@H](O)[C@@H]1O [CPAM-β-Glc, cyclopropylmethyl-β-glucoside]	0.86	–	–	–	–	–	–	–	–	–	–	–	–	–	–	–	–	0.94	1.01
